For 26 compounds, IC50 results are on record in patent US20260258064A1 (SIRONAX LTD., priority 2023, published 2026).

SMILES strings stand for the structures. pIC50: −log10 of the molar value.

The target in the assay is T1, SARM1 (50-724) (Homo sapiens, UniProt Q6SZW1).
T1 construct: Purified SARM1 (50-724) with a final concentration of 2 nM was pre-incubated with a test compound
T1 sequence (Q6SZW1 50-724): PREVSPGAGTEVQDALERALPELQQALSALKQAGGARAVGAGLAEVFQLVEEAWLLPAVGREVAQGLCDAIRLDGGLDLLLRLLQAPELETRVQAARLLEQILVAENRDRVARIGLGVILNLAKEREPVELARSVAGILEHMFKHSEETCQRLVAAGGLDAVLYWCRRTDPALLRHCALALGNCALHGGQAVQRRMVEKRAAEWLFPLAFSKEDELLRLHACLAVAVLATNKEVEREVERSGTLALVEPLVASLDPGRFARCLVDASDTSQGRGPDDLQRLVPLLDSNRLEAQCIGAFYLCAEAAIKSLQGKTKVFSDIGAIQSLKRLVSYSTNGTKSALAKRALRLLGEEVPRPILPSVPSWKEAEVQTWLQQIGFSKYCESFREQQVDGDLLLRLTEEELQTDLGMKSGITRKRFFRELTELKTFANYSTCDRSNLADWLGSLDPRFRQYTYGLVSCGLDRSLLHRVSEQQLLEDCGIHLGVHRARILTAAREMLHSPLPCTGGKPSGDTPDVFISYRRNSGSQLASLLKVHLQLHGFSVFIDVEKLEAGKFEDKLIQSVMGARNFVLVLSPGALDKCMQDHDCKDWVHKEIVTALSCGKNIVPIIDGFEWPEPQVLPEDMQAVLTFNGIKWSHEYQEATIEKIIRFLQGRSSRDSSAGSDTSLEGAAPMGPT
As to the kind of experiment: SARM1 (50-724) enzymatic assay (LC-MS/MS). Type of assay: biochemical. Particulars: Purified SARM1 (50-724) 2 nM, NMN as activator, NAD+ as substrate, 1 h at room temperature, read-out: IC50 (SARM1 inhibitory activity). The procedure, abridged: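 Reaction buffer was Dulbecco's PBS. Compound and 2 nM human SARM1 (50-724) were pre-incubated 15 min at room temperature, then […] NAD^+ and 200 µM NMN activator were added for 1 h at room temperature. Acetonitrile (70%) stop, LC-MS/MS read-out, IC50 values.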
As a reminder, the pIC50 is −log10 of the IC50, conventionally taken in molar units. `Cc1ccc2[nH]c(-n3c(C4CCCC4)n[nH]c3=O)nc2c1` [Compound 12, 5-cyclopentyl-4-(5-methyl-1H-benzo[d]imidazol-2-yl)-2,4-dihydro-3H-1,2,4-triazol-3-one]: the pIC50 was below 6.00.

As for `CC1(C)CC1c1cc(F)c2[nH]c(-c3nncn3-c3cnccc3C(F)(F)F)nc2c1` (centres unmarked) [Compound 347, 5-(2,2-dimethylcyclopropyl)-7-fluoro-2-(4-(4-(trifluoromethyl)pyridin-3-yl)-4H-1,2,4-triazol-3-yl)-1H-benzo[d]imidazole], the pIC50 is at least 7.00.

As for `CNC(=O)c1cc(F)c(Cl)c(-n2cnnc2-c2nc3cc(C(F)(F)F)cc(F)c3[nH]2)c1` [Compound 205, 4-chloro-3-fluoro-5-(3-(7-fluoro-5-(trifluoromethyl)-1H-benzo[d]imidazol-2-yl)-4H-1,2,4-triazol-4-yl)-N-methylbenzamide], the pIC50 was at least 7.00.

Turning to `Cc1ccc2[nH]c(-n3[nH]c(=O)nc3-c3cccc(Cl)c3Cl)nc2c1` [Compound 26, 5-(2,3-dichlorophenyl)-1-(5-methyl-1H-benzo[d]imidazol-2-yl)-1,2-dihydro-3H-1,2,4-triazol-3-one], the pIC50 was below 6.00.

`CC(c1cc(F)c2[nH]c(-c3nncn3-c3cnccc3C(F)(F)F)nc2c1)c1nccs1` (single isomer, unassigned) [Compound 434, 2-(1-(7-fluoro-2-(4-(4-(trifluoromethyl)pyridin-3-yl)-4H-1,2,4-triazol-3-yl)-1H-benzo[d]imidazol-5-yl)ethyl)thiazole]: the pIC50 was at least 7.00.

Turning to `Oc1cc(F)c2[nH]c(-c3nncn3-c3cnccc3C(F)(F)F)nc2c1` [Compound 327, 7-fluoro-2-(4-(4-(trifluoromethyl)pyridin-3-yl)-4H-1,2,4-triazol-3-yl)-1H-benzo[d]imidazol-5-ol], the pIC50 was at least 7.00.

In the case of `FC(F)(F)Oc1cn2ccnc2cc1-n1cnnc1-c1nc2cc(C(F)(F)F)ccc2[nH]1` [Compound 232, 2-(4-(6-(trifluoromethoxy)imidazo[1,2-a]pyridin-7-yl)-4H-1,2,4-triazol-3-yl)-5-(trifluoromethyl)-1H-benzo[d]imidazole], the pIC50 was at least 7.00.

As for `O=c1[nH]nc(-c2cccc(Cl)c2Cl)n1-c1nc2cc(C(F)(F)F)ccc2[nH]1` [Compound 30, 3-(2,3-Dichlorophenyl)-4-[5-(trifluoromethyl)-1H-benzimidazol-2-yl]-1H-1,2,4-triazol-5-one], the pIC50 is below 6.00.

Turning to `CC(c1cc(F)c2[nH]c(-c3nncn3-c3cnccc3C(F)(F)F)nc2c1)n1cccn1` (centres unmarked) [Compound 454, 5-(1-(1H-pyrazol-1-yl)ethyl)-7-fluoro-2-(4-(4-(trifluoromethyl)pyridin-3-yl)-4H-1,2,4-triazol-3-yl)-1H-benzo[d]imidazole], the pIC50 is at least 7.00.

In the case of `FC(F)(F)c1ccc2[nH]c(-c3nncn3-c3c(Cl)cccc3-c3ccn[nH]3)nc2c1` [Compound 168, 2-(4-(2-chloro-6-(1H-pyrazol-5-yl)phenyl)-4H-1,2,4-triazol-3-yl)-5-(trifluoromethyl)-1H-benzo[d]imidazole], the pIC50 was 6.30 to 7.00.

On to `O=c1ccc(-c2cccc(Cl)c2Cl)c(-c2nc3cc(C(F)(F)F)ccc3[nH]2)[nH]1` [Example 37], for which the pIC50 was below 6.00.

Consider `CS(=O)(=O)Cc1nnc(-c2nc3cc(C(F)(F)F)cc(F)c3[nH]2)n1-c1cccc(F)c1Cl` (single isomer, unassigned) [Compound 184, 2-(4-(2-Chloro-3-fluorophenyl)-5-((methylsulfonyl)methyl)-4H-1,2,4-triazol-3-yl)-7-fluoro-5-(trifluoromethyl)-1H-benzo[d]imidazole], for which the pIC50 was at least 7.00.

As to `Fc1cc([C@@H]2[C@@H]3COC[C@@H]32)cc2nc(-c3nncn3-c3cnccc3C(F)(F)F)[nH]c12` (single isomer, unassigned) [Compound 349, 7-fluoro-5-(3-oxabicyclo[3.1.0]hexan-6-yl)-2-[4-[4-(trifluoromethyl)-3-pyridyl]-1,2,4-triazol-3-yl]-1H-benzimidazole], the pIC50 was at least 7.00.

Consider `FC(F)Oc1ncccc1-n1cnnc1-c1nc2cc(C(F)(F)F)ccc2[nH]1` [Compound 235, 2-(4-(2-(difluoromethoxy)pyridin-3-yl)-4H-1,2,4-triazol-3-yl)-5-(trifluoromethyl)-1H-benzo[d]imidazole], for which the pIC50 was at least 7.00.

For the compound `[2H]c1nnc(-c2nc3c(F)c(C4([2H])CC4)cc(F)c3[nH]2)n1-c1cnccc1C(F)(F)F` [Compound 394, 5-(cyclopropyl-1-d)-4,7-difluoro-2-(4-(4-(trifluoromethyl)pyridin-3-yl)-4H-1,2,4-triazol-3-yl-5-d)-1H-benzo[d]imidazole], the negative-log IC50 (pIC50) is at least 7.00.

As to `Fc1c(-c2nncn2-c2cnccc2C(F)(F)F)[nH]c2ccc(C(F)(F)F)cc12` [Compound 259, 3-fluoro-5-(trifluoromethyl)-2-(4-(4-(trifluoromethyl)pyridin-3-yl)-4H-1,2,4-triazol-3-yl)-1H-indole], the pIC50 was at least 7.00.

Regarding `Clc1cccc(-n2cnnc2-c2nc3cc(-c4cscn4)ccc3[nH]2)c1Cl` [Example 100, 4-(2-(4-(2,3-dichlorophenyl)-4H-1,2,4-triazol-3-yl)-1H-benzo[d]imidazol-5-yl)thiazole], the pIC50 was at least 7.00.

In the case of `FC(F)(F)c1ccc2[nH]c(C3COCCN3c3cccc(Cl)c3Cl)nc2c1` (centres unmarked) [Compound 363, 4-(2,3-dichlorophenyl)-3-[5-(trifluoromethyl)-1H-benzimidazol-2-yl]morpholine], the negative logarithm of the IC50 (pIC50) is 6.00 to 6.30.

Consider `FC(F)(F)c1ccc2[nH]c(-c3nnnn3-c3cccc(Cl)c3Cl)nc2c1` [Example 99], for which the pIC50 is 6.30 to 7.00.

Consider `FC(F)(F)c1ccc2[nH]c(-c3nncn3-c3cnccc3C(F)(F)F)cc2c1` [Compound 258, 5-(trifluoromethyl)-2-(4-(4-(trifluoromethyl)pyridin-3-yl)-4H-1,2,4-triazol-3-yl)-1H-indole], for which the pIC50 is at least 7.00.

`FC(F)(F)c1ccc2[nH]c(-c3nncn3-c3c(Cl)cccc3Cl)nc2c1` [Compound 149, 2-(4-(2,6-dichlorophenyl)-4H-1,2,4-triazol-3-yl)-5-(trifluoromethyl)-1H-benzo[d]imidazole]: the pIC50 was at least 7.00.

As for `FC(F)(F)c1ccc2[nH]c(-c3cccn3-c3nnccc3C(F)(F)F)nc2c1` [Compound 305, 5-(Trifluoromethyl)-2-(1-(4-(trifluoromethyl)pyridazin-3-yl)-1H-pyrrol-2-yl)-1H-benzo[d]imidazole], the pIC50 was at least 7.00.

For the compound `CCc1ccc2[nH]c(-c3nncn3-c3cnccc3C(F)(F)F)nc2c1` [Compound 277, 5-ethyl-2-(4-(4-(trifluoromethyl)pyridin-3-yl)-4H-1,2,4-triazol-3-yl)-1H-benzo [d]imidazole], the pIC50 was at least 7.00.

Turning to `CSc1nnc(-c2nc3cc(C(F)(F)F)ccc3[nH]2)n1-c1cccc(Cl)c1Cl` [Compound 116], the pIC50 is 6.30 to 7.00.

Turning to `FC(F)(F)c1ccc2[nH]c(-c3nncn3-c3ccccc3Cl)nc2c1` [Example 105], the pIC50 is at least 7.00.

On to `CS(=O)(=O)c1ccc2[nH]c(-c3nncn3-c3cccc(Cl)c3Cl)nc2c1` [Example 46, 2-(4-(2,3-dichlorophenyl)-4H-1,2,4-triazol-3-yl)-5-(methylsulfonyl)-1H-benzo[d]imidazole], for which the pIC50 was 6.30 to 7.00.
